ChEMBL document CHEMBL3045517, “Tolerance of tomato, pepper and potato to pre-emergence applications of saflufenacil” (Crop Prot, 2012)

Tests used:
Type in all cases: organism-based
Capsicum annuum [1] = assay: Toxicity against Capsicum annuum Socrates (pepper) assessed as decrease in marketable yield at 100 g ai/ha pretransplant application measured at maturity of the crop; set-up: scale not given: the % may be the effect or the level left; settings: in vivo, other
Solanum tuberosum [2] = assay: Toxicity against Solanum tuberosum Superior (potato) assessed as dose required to cause 5% growth reduction applied within 3 days after seeding measured at 28 days after crop emergence; settings: in vivo
Solanum tuberosum [3] = assay: Toxicity against Solanum tuberosum Superior (potato) assessed as reduction in plant dry weight at 100 g ai/ha preemergence application measured at 28 days after crop emergence; set-up: scale not given: the % may be the effect or the level left; settings: in vivo, other, 672 h
Capsicum annuum [4] = assay: Toxicity against Capsicum annuum Socrates (pepper) assessed as decrease in crop injury at 100 g ai/ha pretransplant application measured at 28 days after crop transplanting; set-up: scale not given: the % may be the effect or the level left; settings: in vivo, other, 672 h
Solanum tuberosum [5] = assay: Toxicity against Solanum tuberosum Superior (potato) assessed as decrease in marketable yield at 100 g ai/ha preemergence application measured at maturity of the crop; set-up: scale not given: the % may be the effect or the level left; settings: in vivo, other
Solanum lycopersicum [6] = assay: Toxicity against Solanum lycopersicum (tomato) H9909 assessed as decrease in marketable yield at 100 g ai/ha pretransplant application measured at maturity of the crop; set-up: scale not given: the % may be the effect or the level left; settings: in vivo, other
Capsicum annuum [7] = assay: Toxicity against Capsicum annuum Socrates (pepper) assessed as dose required to cause 5% yield loss applied within 3 days prior to transplantation measured at maturity of the crop; settings: in vivo, 72 h
Solanum lycopersicum [8] = assay: Toxicity against Solanum lycopersicum (tomato) H9909 assessed as dose required to cause 5% visible injury applied within 3 days prior to transplantation measured at 28 days after crop transplanting; settings: in vivo, 672 h
Solanum lycopersicum [9] = assay: Toxicity against Solanum lycopersicum (tomato) H9909 assessed as reduction in plant dry weight at 100 g ai/ha pretransplant application measured at 28 days after crop transplanting; set-up: scale not given: the % may be the effect or the level left; settings: in vivo, other, 672 h
Capsicum annuum [10] = assay: Toxicity against Capsicum annuum Socrates (pepper) assessed as reduction in plant dry weight at 100 g ai/ha pretransplant application measured at 28 days after crop transplanting; set-up: scale not given: the % may be the effect or the level left; settings: in vivo, other, 672 h
Capsicum annuum [11] = assay: Toxicity against Capsicum annuum Socrates (pepper) assessed as dose required to cause 5% visible injury applied within 3 days prior to transplantation measured at 28 days after crop transplanting; settings: in vivo, 672 h
Capsicum annuum [12] = assay: Toxicity against Capsicum annuum Socrates (pepper) assessed as dose required to cause 5% growth reduction applied within 3 days prior to transplantation measured at 28 days after crop transplanting; settings: in vivo, 672 h
Solanum tuberosum [13] = assay: Toxicity against Solanum tuberosum Superior (potato) assessed as decrease in crop injury at 100 g ai/ha preemergence application measured at 28 days after crop emergence; set-up: scale not given: the % may be the effect or the level left; settings: in vivo, other, 672 h
Solanum lycopersicum [14] = assay: Toxicity against Solanum lycopersicum (tomato) H9909 assessed as dose required to cause 5% yield loss applied within 3 days prior to transplantation measured at maturity of the crop; settings: in vivo, 72 h
Solanum tuberosum [15] = assay: Toxicity against Solanum tuberosum Superior (potato) assessed as dose required to cause 5% visible injury applied within 3 days after seeding measured at 28 days after crop emergence; settings: in vivo, 672 h
Solanum tuberosum [16] = assay: Toxicity against Solanum tuberosum Superior (potato) assessed as dose required to cause 5% yield loss applied within 3 days after seeding measured at maturity of the crop; settings: in vivo, 72 h
Solanum lycopersicum [17] = assay: Toxicity against Solanum lycopersicum (tomato) H9909 assessed as decrease in crop injury at 100 g ai/ha pretransplant application measured at 28 days after crop transplanting; set-up: scale not given: the % may be the effect or the level left; settings: in vivo, other, 672 h
Solanum lycopersicum [18] = assay: Toxicity against Solanum lycopersicum (tomato) H9909 assessed as dose required to cause 5% growth reduction applied within 3 days prior to transplantation measured at 28 days after crop transplanting; settings: in vivo, 672 h
Capsicum annuum [19] = assay: Toxicity against Capsicum annuum (pepper) assessed as crop injury at 420 g ai/ha pretransplant application; settings: in vivo, other

CC(C)N(C)S(=O)(=O)NC(=O)c1cc(-n2c(=O)cc(C(F)(F)F)n(C)c2=O)c(F)cc1Cl [SAFLUFENACIL]
Activity (Capsicum annuum [1]): 69%
Activity (Solanum tuberosum [2]): 15.5 gAi/ha
Activity (Solanum tuberosum [3]): 30%
Activity (Capsicum annuum [4]): 32%
Activity (Solanum tuberosum [5]): 18%
Activity (Solanum lycopersicum [6]): 57%
Activity (Capsicum annuum [7]): 7 gAi/ha
Activity (Solanum lycopersicum [8]): 17.5 gAi/ha
Activity (Solanum lycopersicum [9]): 73%
Activity (Capsicum annuum [10]): 82%
Activity (Capsicum annuum [11]): 15.4 gAi/ha
Activity (Capsicum annuum [12]): 5.6 gAi/ha
Activity (Solanum tuberosum [13]): 5%
Activity (Solanum lycopersicum [14]): 8.8 gAi/ha
Activity (Solanum tuberosum [15]): 105 gAi/ha
Activity (Solanum tuberosum [16]): 19.7 gAi/ha
Activity (Solanum lycopersicum [17]): 29%
Activity (Solanum lycopersicum [18]): 6.7 gAi/ha

Cc1nn(-c2cc(NS(C)(=O)=O)c(Cl)cc2Cl)c(=O)n1C(F)F [SULFENTRAZONE]
Activity (Capsicum annuum [19]): 65%
